Test systems include M14 melanoma; RPMI-8226 leukemia; SNB-19 CNS; UACC-257 melanoma; IGROV1 ovarian; TK-10 renal; MOLT-4 leukemia; HCC-2998 colon; RXF 393 renal; SF-539 CNS.
Holding throughout (assay): NCI tumour cell line growth inhibition, 48 h

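A five-concentration, 48-hour dose response in 96-well plates underlies each endpoint, interpolated linearly between surrounding concentrations. GI50 marks 50% less growth. TGI marks complete inhibition of growth.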

For `COc1cc2oc(=O)cc(C)c2c(OC)c1OC`, the TGI with M14 melanoma, with RPMI-8226 leukemia, in the experiment with SNB-19 CNS, in the experiment with UACC-257 melanoma, in the experiment on IGROV1 ovarian and with TK-10 renal was over 100 µM throughout. Besides, in the experiment with MOLT-4 leukemia, the TGI is over 100 µM.

Turning to `O=C(O)Cc1ccc(-n2nnc3c(=O)[nH][nH]c(=O)c32)cc1`, the TGI with M14 melanoma, with RPMI-8226 leukemia, with SNB-19 CNS, with UACC-257 melanoma, in the experiment on TK-10 renal and in the experiment with MOLT-4 leukemia was over 100 µM each time. In the experiment on HCC-2998 colon, this compound had a TGI of over 100 µM.

For the compound `O=C1C=C(NCCc2ccc(O)cc2)C(=O)C=C1NCCc1ccc(O)cc1`, the TGI with RXF 393 renal, in the experiment with RPMI-8226 leukemia, in the experiment with SNB-19 CNS, in the experiment with UACC-257 melanoma, with IGROV1 ovarian and with TK-10 renal was over 100 µM in each case. Further, the TGI in the experiment with MOLT-4 leukemia and with HCC-2998 colon was over 100 µM each time.

In the case of `CN=C(NC#N)NCc1ccccc1`, the TGI with SF-539 CNS, in the experiment with M14 melanoma, in the experiment with RPMI-8226 leukemia, in the experiment on SNB-19 CNS, in the experiment with UACC-257 melanoma and in the experiment with IGROV1 ovarian was over 100 µM in each case. In addition, the TGI with TK-10 renal, with MOLT-4 leukemia and in the experiment on HCC-2998 colon was over 100 µM throughout.

For the compound `COc1ccc(C(CC(=O)c2ccc(O)cc2)C(C(=O)c2ccc(O)cc2)C(c2ccc(OC)cc2)C2C(=O)NC(=S)NC2=O)cc1` (centres undefined), the TGI worked out at 39.3 µM in the experiment with M14 melanoma; 92.4 µM in the experiment on RPMI-8226 leukemia; 43.7 µM in the experiment with SNB-19 CNS; 41 µM in the experiment with UACC-257 melanoma; 32.3 µM in the experiment with IGROV1 ovarian; 53.7 µM in the experiment with TK-10 renal. Further, in the experiment with MOLT-4 leukemia, the TGI is over 100 µM.

For the compound `COc1ccc(/C=C2\NC(=S)N(CN3CCOCC3)C2=O)cc1`, the TGI in the experiment on M14 melanoma, in the experiment with RPMI-8226 leukemia, in the experiment with SNB-19 CNS, in the experiment on UACC-257 melanoma, with IGROV1 ovarian and with TK-10 renal was over 100 µM throughout. The same compound had a TGI in the experiment with MOLT-4 leukemia of over 100 µM.

With `Cc1cc(NS(=O)(=O)c2ccc(N=Nc3c(Nc4ccccc4)nn(-c4ccc(S(=O)(=O)Nc5ccncn5)cc4)c3C)cc2)no1`, the TGI in the experiment on SF-539 CNS, in the experiment with M14 melanoma, with SNB-19 CNS, in the experiment with UACC-257 melanoma, in the experiment on IGROV1 ovarian and in the experiment with TK-10 renal was over 100 µM throughout. Moreover, the TGI with MOLT-4 leukemia and in the experiment on HCC-2998 colon was over 100 µM each time.

In the case of `O=[N+]([O-])c1ccc(N/N=C\c2ccc(O)cc2O)nc1`, the GI50 was 3.07 µM with SF-539 CNS; 1.44 µM in the experiment on M14 melanoma; 4.21 µM in the experiment with RPMI-8226 leukemia; 3.24 µM in the experiment on SNB-19 CNS; 3.37 µM with UACC-257 melanoma; 3.4 µM with IGROV1 ovarian. The GI50 was 5.09 µM with TK-10 renal and 3.94 µM in the experiment on HCC-2998 colon. Also, the TGI in the experiment on SF-539 CNS is over 100 µM; in the experiment with M14 melanoma, 4.85 µM; in the experiment on RPMI-8226 leukemia, over 100 µM; in the experiment on SNB-19 CNS, over 100 µM; in the experiment with UACC-257 melanoma, over 100 µM; in the experiment with IGROV1 ovarian, over 100 µM. The TGI with TK-10 renal and in the experiment with HCC-2998 colon was over 100 µM in each case.

On to `FC1(F)SC2CCCCCCCCCCC2C1(F)F` (centres undefined), for which the TGI with M14 melanoma is over 100 µM; in the experiment on RXF 393 renal, 54 µM; in the experiment with RPMI-8226 leukemia, over 100 µM; in the experiment on SNB-19 CNS, over 100 µM; in the experiment with UACC-257 melanoma it was 69.8 µM; in the experiment on IGROV1 ovarian it was over 100 µM. Besides, the TGI in the experiment with TK-10 renal and in the experiment on MOLT-4 leukemia was over 100 µM in each case.

Turning to `COC(=O)c1cc(OCc2cc(OCc3ccc(Br)cc3)cc(OCc3ccc(Br)cc3)c2)cc(OCc2cc(OCc3ccc(Br)cc3)cc(OCc3ccc(Br)cc3)c2)c1`, the TGI in the experiment on SF-539 CNS, with M14 melanoma, with RPMI-8226 leukemia, with SNB-19 CNS, in the experiment on UACC-257 melanoma and in the experiment with TK-10 renal was over 100 µM throughout. The TGI in the experiment on MOLT-4 leukemia and with HCC-2998 colon was over 100 µM throughout.

Turning to `COc1ccccc1N1C(=O)/C(=C\c2ccccc2)SC1c1cc(OC)c(OC)c(OC)c1` (centres undefined), the TGI in the experiment on M14 melanoma, in the experiment on SNB-19 CNS, with UACC-257 melanoma, in the experiment with TK-10 renal, in the experiment on MOLT-4 leukemia and in the experiment on HCC-2998 colon was over 100 µM in each case.

With `COC(=O)Cc1c(-c2c(CC(=O)OC)c3ccccc3n2C2OC(COC3OC(COC(C)=O)C(OC(C)=O)C(OC(C)=O)C3OC(C)=O)C(O)C(O)C2O)[nH]c2ccccc12` (centres undefined), the TGI was over 100 µM with SF-539 CNS; over 100 µM in the experiment on M14 melanoma; over 100 µM in the experiment on RPMI-8226 leukemia; 60 µM with SNB-19 CNS; over 100 µM with UACC-257 melanoma; over 100 µM with IGROV1 ovarian. The TGI in the experiment on TK-10 renal and in the experiment on MOLT-4 leukemia was over 100 µM in each case.

(Values after PubChem BioAssay (NCI).)
